Laboratory results: ChEMBL document CHEMBL5042509, “Benzophenone Glucosides and B-Type Proanthocyanidin Dimers from Zambian Cassia abbreviata and Their Trypanocidal Activities” (J Nat Prod, 2022)
Values after ≈ are worked out from the molar mass of the structure shown.

What was measured:
[1] = test system: Trypanosoma brucei gambiense; assay: Trypanocidal activity against Trypanosoma brucei gambiense IL1922 assessed as parasite growth inhibition at 50 ug/ml incubated for 3 days by Celltiter-Glo luminescence assay; format: functional; design: scale not given: the % may be the effect or the level left; conditions: dose 50 µg/ml; time 3 day
[2] = test system: Trypanosoma brucei brucei; assay: Trypanocidal activity against Trypanosoma brucei brucei GUTat3.1 assessed as parasite growth inhibition at 50 ug/ml incubated for 3 days by Celltiter-Glo luminescence assay; format: functional; design: scale not given: the % may be the effect or the level left; conditions: dose 50 µg/ml; time 3 day
[3] = test system: Trypanosoma brucei rhodesiense; assay: Trypanocidal activity against Trypanosoma brucei rhodesiense IL1501 assessed as parasite growth inhibition at 50 ug/ml incubated for 3 days by Celltiter-Glo luminescence assay; format: functional; design: scale not given: the % may be the effect or the level left; conditions: dose 50 µg/ml; time 3 day
[4] = test system: Trypanosoma brucei rhodesiense; assay: Trypanocidal activity against Trypanosoma brucei rhodesiense assessed as parasite growth inhibition at 50 ug/ml incubated for 3 days by Celltiter-Glo luminescence assay; format: functional; design: scale not given: the % may be the effect or the level left; conditions: dose 50 µg/ml; time 3 day
[5] = test system: Trypanosoma evansi; assay: Trypanocidal activity against Trypanosoma evansi assessed as parasite growth inhibition at 50 ug/ml incubated for 3 days by Celltiter-Glo luminescence assay; format: functional; design: scale not given: the % may be the effect or the level left; conditions: dose 50 µg/ml; time 3 day
[6] = test system: Trypanosoma congolense; assay: Trypanocidal activity against Trypanosoma congolense IL3000 assessed as parasite growth inhibition at 50 ug/ml incubated for 3 days by Celltiter-Glo luminescence assay; design: scale not given: the % may be the effect or the level left; conditions: dose 50 µg/ml; time 3 day
[7] = test system: Trypanosoma evansi; assay: Trypanocidal activity against Trypanosoma evansi assessed as parasite growth inhibition incubated for 3 days by Celltiter-Glo luminescence assay; format: functional, organism-based; conditions: 72 h
[8] = test system: Trypanosoma brucei rhodesiense; assay: Trypanocidal activity against Trypanosoma brucei rhodesiense assessed as parasite growth inhibition incubated for 3 days by Celltiter-Glo luminescence assay; format: functional, organism-based; conditions: 72 h
[9] = test system: Trypanosoma congolense; assay: Trypanocidal activity against Trypanosoma congolense IL3000 assessed as parasite growth inhibition incubated for 3 days by Celltiter-Glo luminescence assay; conditions: IL3000, 72 h
[10] = test system: Trypanosoma brucei brucei; assay: Trypanocidal activity against Trypanosoma brucei brucei GUTat3.1 assessed as parasite growth inhibition incubated for 3 days by Celltiter-Glo luminescence assay; format: functional, organism-based; conditions: GUTat3.1, 72 h
[11] = test system: Trypanosoma brucei rhodesiense; assay: Trypanocidal activity against Trypanosoma brucei rhodesiense IL1501 assessed as parasite growth inhibition incubated for 3 days by Celltiter-Glo luminescence assay; format: functional, organism-based; conditions: IL1501, 72 h
[12] = test system: Trypanosoma brucei gambiense; assay: Trypanocidal activity against Trypanosoma brucei gambiense IL1922 assessed as parasite growth inhibition incubated for 3 days by Celltiter-Glo luminescence assay; format: functional, organism-based; conditions: IL1922, 72 h

Compound	Activity [1] [%]	Activity [2] [%]	Activity [3] [%]	Activity [4] [%]	Activity [5] [%]	Activity [6] [%]	IC50 [7] [µg/mL]	IC50 [8] [µg/mL]	IC50 [9] [µg/mL]	IC50 [10] [µg/mL]	IC50 [11] [µg/mL]	IC50 [12] [µg/mL]
COc1ccc(O[C@@H]2O[C@H](CO)[C@@H](O)[C@H](O)[C@H]2O)cc1OC	0	0	0	8.9	0	0	–	–	–	–	–	–
Oc1ccc([C@H]2Oc3cc(O)ccc3[C@H](c3c(O)cc(O)c4c3O[C@H](c3cc(O)c(O)c(O)c3)[C@H](O)C4)[C@@H]2O)cc1	26.1	0	13.65	99.9	99.69	99.67	23.2 (≈ 41.2 µM)	3.91 (≈ 6.95 µM)	15.3 (≈ 27.3 µM)	–	–	–
Cc1cc(O)c(C(=O)c2c(O)cccc2O[C@@H]2O[C@H](CO)[C@@H](O)[C@H](O)[C@H]2O)c(C(=O)O)c1	5.44	15.74	2.22	34.99	0	20.76	–	–	–	–	–	–
Oc1ccc2c(c1)O[C@H](c1cc(O)c(O)c(O)c1)[C@@H](O)[C@H]2c1c(O)cc(O)c2c1O[C@H](c1ccc(O)c(O)c1)[C@H](O)C2	83.48	44.09	60.48	100.09	100.24	100.13	5.51 (≈ 9.52 µM)	5.42 (≈ 9.37 µM)	7.15 (≈ 12.4 µM)	–	–	–
COc1cc(O[C@@H]2O[C@H](CO)[C@@H](O)[C@H](O)[C@H]2O[C@@H]2O[C@@H](C)[C@H](OC(C)=O)[C@@H](OC(C)=O)[C@H]2OC(C)=O)cc(OC)c1OC	38.79	44.45	27.17	89.65	0	91.43	–	33.3 (≈ 53.8 µM)	40.9 (≈ 66.1 µM)	–	–	–
Oc1ccc([C@H]2Oc3cc(O)ccc3[C@@H](c3c(O)cc(O)c4c3O[C@H](c3cc(O)c(O)c(O)c3)[C@H](O)C4)[C@@H]2O)cc1	57.94	48.67	57.75	90.97	69.94	69.89	3.32 (≈ 5.9 µM)	4.13 (≈ 7.34 µM)	5.32 (≈ 9.46 µM)	–	–	–
COc1cc(O[C@@H]2O[C@H](CO)[C@@H](O)[C@H](O)[C@H]2O[C@@H]2O[C@@H](C)[C@H](O)[C@@H](O)[C@H]2O)cc(OC)c1OC	0.1	0.72	2.26	5.42	0	0	–	–	–	–	–	–
Oc1ccc([C@H]2Oc3cc(O)ccc3[C@@H](c3c(O)cc(O)c4c3O[C@H](c3ccc(O)c(O)c3)[C@@H](O)C4)[C@@H]2O)cc1	6.42	20.95	6.96	88.52	0	20.82	–	–	–	–	–	–
Oc1ccc([C@H]2Oc3cc(O)ccc3[C@H](c3c(O)cc(O)c4c3O[C@H](c3ccc(O)c(O)c3)[C@H](O)C4)[C@@H]2O)cc1	10.01	13.03	1.57	59.53	0	35.26	–	–	–	–	–	–
COc1ccc(O[C@@H]2O[C@H](CO)[C@@H](O)[C@H](O)[C@H]2O[C@@H]2OC[C@](O)(CO)[C@H]2O)cc1OC	0	0	0	2.69	0.6	0	–	–	–	–	–	–
COc1cc(C(=O)O)cc(OC)c1O[C@@H]1O[C@H](CO)[C@@H](O)[C@H](O)[C@H]1O	14.44	9.64	20.63	53.1	0	0	–	–	–	–	–	–
Oc1ccc2c(c1)O[C@H](c1ccc(O)c(O)c1)[C@@H](O)[C@@H]2c1c(O)cc(O)c2c1O[C@H](c1cc(O)c(O)c(O)c1)[C@H](O)C2	14.68	10.18	24.11	99.93	57.8	72.01	12.2 (≈ 21.2 µM)	10.9 (≈ 18.9 µM)	13.1 (≈ 22.6 µM)	–	–	–
Cc1cc(O[C@@H]2O[C@H](CO)[C@@H](O)[C@H](O)[C@H]2O)c(C(=O)c2c(O)cccc2O)c(C(=O)O)c1	7.09	18.9	3.46	85.05	29.06	–	–	–	–	–	–	–
Oc1ccc2c(c1)O[C@H](c1ccc(O)c(O)c1)[C@@H](O)[C@@H]2c1c(O)cc(O)c2c1O[C@H](c1ccc(O)c(O)c1)[C@@H](O)C2	4.59	20.31	2.52	99.6	32.9	36.23	–	–	–	–	–	–
Oc1ccc([C@H]2Oc3c(c(O)cc(O)c3[C@@H]3c4ccc(O)cc4O[C@H](c4ccc(O)c(O)c4)[C@H]3O)C[C@H]2O)cc1	10.09	16.43	9.66	90.49	0	33.1	–	–	–	–	–	–
Oc1ccc([C@H]2Oc3cc(O)ccc3[C@@H](c3c(O)cc(O)c4c3O[C@H](c3cc(O)c(O)c(O)c3)[C@@H](O)C4)[C@@H]2O)cc1	26.67	35.39	20.49	99.92	99.77	99.74	14.9 (≈ 26.5 µM)	4.02 (≈ 7.15 µM)	7.53 (≈ 13.4 µM)	–	–	–
Oc1ccc2c(c1)O[C@H](c1ccc(O)c(O)c1)[C@@H](O)[C@H]2c1c(O)cc(O)c2c1O[C@H](c1ccc(O)c(O)c1)[C@H](O)C2	9.9	12.85	19.57	82.26	4.88	37.33	–	–	–	–	–	–
COc1cc(O[C@@H]2O[C@H](CO)[C@@H](O)[C@H](O)[C@H]2O[C@@H]2OC[C@](O)(CO)[C@H]2O)cc(OC)c1OC	0	0	0.73	60.74	0	0	–	–	–	–	–	–
Oc1ccc2c(c1)O[C@H](c1ccc(O)c(O)c1)[C@@H](O)[C@H]2c1c(O)cc(O)c2c1O[C@H](c1cc(O)c(O)c(O)c1)[C@H](O)C2	73.09	26.31	42.7	100.02	100.12	99.96	6.52 (≈ 11.3 µM)	6.79 (≈ 11.7 µM)	9.26 (≈ 16 µM)	–	–	–
Oc1cc(O)c2c(c1)O[C@H](c1ccc(O)c(O)c1)[C@H](O)C2 [(-)-EPICATECHIN]	11.49	29.77	8.81	74.01	54.44	13.33	–	–	–	–	–	–
COc1cc(O)cc(OC)c1OC [ANTIAROL]	43.51	32.18	20.12	94.68	0	1.68	–	24.9 (≈ 135 µM)	–	–	–	–
Oc1cc(O)c2c(c1)O[C@H](c1ccc(O)c(O)c1)[C@@H](O)C2 [CIANIDANOL]	9.71	22.82	2.35	100.03	66.43	22.03	14.9 (≈ 51.3 µM)	47.6 (≈ 164 µM)	–	–	–	–
N=C(N)c1ccc(/N=N/Nc2ccc(C(=N)N)cc2)cc1 [DIMINAZENE]	–	–	–	–	–	–	0.0033 (≈ 0.0117 µM)	0.081 (≈ 0.288 µM)	0.065 (≈ 0.231 µM)	0.02 (≈ 0.0711 µM)	0.013 (≈ 0.0462 µM)	0.0066 (≈ 0.0235 µM)
NCCC[C@](N)(C(=O)O)C(F)F [EFLORNITHINE, (S)-]	–	–	–	–	–	–	10.4 (≈ 57.2 µM)	6.5 (≈ 35.7 µM)	2.94 (≈ 16.1 µM)	7.03 (≈ 38.6 µM)	8.38 (≈ 46 µM)	6.68 (≈ 36.7 µM)
Oc1cc(O)c2c(c1)O[C@H](c1cc(O)c(O)c(O)c1)[C@H](O)C2 [EPIGALLOCATECHIN]	85.1	62.43	66.56	100.06	99.99	99.94	1.58 (≈ 5.16 µM)	1.62 (≈ 5.29 µM)	2.38 (≈ 7.77 µM)	–	–	–
CC1CS(=O)(=O)CCN1/N=C/c1ccc([N+](=O)[O-])o1 (centres undefined) [NIFURTIMOX]	–	–	–	–	–	–	–	0.42 (≈ 1.46 µM)	0.3 (≈ 1.04 µM)	–	–	–
N=C(N)c1ccc(OCCCCCOc2ccc(C(=N)N)cc2)cc1 [PENTAMIDINE]	–	–	–	–	–	–	0.00033 (≈ 0.000969 µM)	0.0017 (≈ 0.00499 µM)	0.11 (≈ 0.323 µM)	0.014 (≈ 0.0411 µM)	0.0099 (≈ 0.0291 µM)	0.0049 (≈ 0.0144 µM)
Cc1ccc(C(=O)Nc2ccc(S(=O)(=O)O)c3cc(S(=O)(=O)O)cc(S(=O)(=O)O)c23)cc1NC(=O)c1cccc(NC(=O)Nc2cccc(C(=O)Nc3cc(C(=O)Nc4ccc(S(=O)(=O)O)c5cc(S(=O)(=O)O)cc(S(=O)(=O)O)c45)ccc3C)c2)c1 [SURAMIN]	–	–	–	–	–	–	0.54 (≈ 0.416 µM)	0.094 (≈ 0.0725 µM)	10.2 (≈ 7.9 µM)	0.094 (≈ 0.0725 µM)	0.11 (≈ 0.0848 µM)	0.092 (≈ 0.0709 µM)
